This passage reports ED50 results from patent US5173490A, “Benzisoxazole and benzisothiazole compounds” (Adir et Compagnie, priority 1991, dated 1992).

The subject of one assay is stereotypies (bruxism) induced by methyl phenidate. The experiment in a line: Test of the stereotypies induced by methyl phenidate in rats (inhibition of bruxism). It is filed as in vivo, male Wistar rats. The note with it: Rattus norvegicus, ip, 0.5 h, read-out: ED50 (mean effective dose permitting inhibition of bruxism by 50%). As for the experimental part:
24 male Wistar rats which weighed between 220 and 240 g and which had eaten nothing for approximately 24 hours were used for this test. Each animal receives a first treatment (reference compound, compound of the invention, or solvent) at a given time before a second treatment (methyl phenidate or physiological serum), which is effected by the i.p. route at the time designated T0. Among the animals used for a test, […] serve as control and receive the following treatments: serum+serum i.p.: 1 animal (serum control); solvent+ 40 mg/kg i.p. methyl phenidate: 2 animals (40 mg/kg i.p. methyl phenidate control); and solvent+0.16, 0.63, 2.5 or 10 mg/kg i.p. of methyl phenidate: 1 animal (0.16, 0.63, 2.5 or 10 mg/kg i.p. methyl phenidate controls).
The test products were administered at given times before the injection of 40 mg/kg i.p. of methyl phenidate at T0. Each animal is observed for a period of 10 seconds. Observations of behaviour were carried out 30 minutes after the treatment with methyl phenidate. A total of 10 observation periods is carried out for each rat at time T30 min. During these observations, the presence (1) or absence (0) of stereotypy is noted.
`CN(C)CCCN1c2ccccc2Sc2ccc(Cl)cc21` [chlorpromazine, reference compound]: the ED50 (in general, the dose at which the effect has come halfway, by size or by number of responders) turned out to be 1.4 mg/kg.

The same assay, now with this note: Rattus norvegicus, ip, 0.5 h; rats; i.p.; given before 40 mg/kg i.p. methyl phenidate; observed 30 min after methyl phenidate; read-out: ED50 (mean effective dose permitting inhibition of bruxism by 50%).
Turning to `COc1cc2c(cc1OC)C(CN1CCN(c3noc4cc(F)ccc34)CC1)C2` (racemic) [Example 17, (R,S)-3-{1-[(4,5-dimethoxybenzocyclobutan-1-yl)methyl]-piperazin-4-yl}-6-fluoro-1,2-benzisoxazole], the median effective dose (ED50) amounted to 2.5 mg/kg.

Regarding `c1ccc2c(c1)CC2CN1CCN(c2nsc3ccccc23)CC1` (racemic) [Example 4, (R,S)-3-{1-[(benzocyclobutan-1-yl)methyl]piperazin-4-yl}-1,2-benzisothiazole], the ED50 was 10 mg/kg.

As for `Fc1ccc2c(N3CCN(CC4Cc5ccccc54)CC3)noc2c1` (racemic) [Example 1, (R,S)-3-{1-[(benzocyclobutan-1-yl)methyl]piperazin-4-yl}-6-fluoro-1,2-benzisoxazole], the ED50 worked out at 0.31 mg/kg.

Consider `Fc1ccc2c(N3CCN(CC4CCc5ccccc54)CC3)noc2c1` (racemic) [Example 18, (R,S)-3-{1-[(indan-1-yl)methyl]piperazin-4-yl}-6-fluoro-1,2-benzisoxazole], for which the ED50 turned out to be 10 mg/kg.

Regarding `COc1cc2c(cc1OC)C(CN1CCN(c3noc4ccccc34)CC1)C2` (racemic) [Example 19, (R,S)-3-{1-[(4,5-dimethoxybenzocyclobutan-1-yl)-methyl]piperazin-4-yl}-1,2-benzisoxazole], the ED50 was 1.25 mg/kg.

As to `c1ccc2c(c1)CC2CN1CCN(c2noc3ccccc23)CC1` (racemic) [Example 6, (R,S)-3-{1-[(benzocyclobutan-1-yl)methyl]piperazin-4-yl}-1,2-benzisoxazole], the median effective dose (ED50) was 1.25 mg/kg.
